Changes are numbered by the printed parent chain. Where “and” joins values, the source holds several entries; their conditions need not be identical. Equal values may be shown once.

In experiment [1] the target is T1, human TRPV3 (hTRPV3) channel (Homo sapiens, UniProt Q8NET8).
T1 construct: expressed in transfected cells; host or cells: HEK293T
T1 sequence (Q8NET8 1-790): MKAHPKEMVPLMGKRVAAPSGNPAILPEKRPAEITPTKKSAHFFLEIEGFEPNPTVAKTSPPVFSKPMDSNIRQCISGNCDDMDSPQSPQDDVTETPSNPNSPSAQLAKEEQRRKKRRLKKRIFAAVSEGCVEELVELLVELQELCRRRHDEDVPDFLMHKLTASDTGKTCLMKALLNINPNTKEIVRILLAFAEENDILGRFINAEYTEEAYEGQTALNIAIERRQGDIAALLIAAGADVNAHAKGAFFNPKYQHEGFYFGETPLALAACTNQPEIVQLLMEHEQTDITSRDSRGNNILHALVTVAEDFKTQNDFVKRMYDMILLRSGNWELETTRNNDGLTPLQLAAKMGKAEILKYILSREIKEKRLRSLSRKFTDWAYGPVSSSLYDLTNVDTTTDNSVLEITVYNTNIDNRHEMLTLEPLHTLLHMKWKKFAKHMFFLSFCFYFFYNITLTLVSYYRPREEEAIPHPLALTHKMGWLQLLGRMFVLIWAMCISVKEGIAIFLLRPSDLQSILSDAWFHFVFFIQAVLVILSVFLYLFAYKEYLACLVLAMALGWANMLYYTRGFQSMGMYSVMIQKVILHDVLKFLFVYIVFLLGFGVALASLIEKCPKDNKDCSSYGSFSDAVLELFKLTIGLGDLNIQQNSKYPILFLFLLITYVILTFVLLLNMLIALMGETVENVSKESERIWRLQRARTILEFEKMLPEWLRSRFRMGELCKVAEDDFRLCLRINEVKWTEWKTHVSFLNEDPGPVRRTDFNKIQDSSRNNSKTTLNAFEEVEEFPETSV
Description: Whole-cell patch-clamp of hTRPV3 currents in transfected HEK293T cells. The settings on record: WT hTRPV3 in HEK293T, whole-cell, activated by 50 μM 2-APB, at +80 mV, Hill fit, mean ± SD; read-out: IC50, inhibition of hTRPV3 currents. It is filed as cell-based.

The target in experiment [2] is T2, human TRPA1 (hTRPA1) channels (Homo sapiens, UniProt O75762).
T2 construct: expressed in transfected cells; host or cells: HEK293T
Description: Whole-cell patch-clamp selectivity, hTRPA1 in HEK293T cells. The class given is cell-based. The settings on record: CA at 1000 μM, current induced by AITC at 300 μM, mean ± SD, n = 5.

Experiment [3] concerns the target T3, human TRPM8 (hTRPM8) channels (Homo sapiens, UniProt Q7Z2W7).
T3 construct: expressed in transfected cells; host or cells: HEK293T
Description: Whole-cell patch-clamp selectivity, hTRPM8 in HEK293T cells. The class given is cell-based. The note with it: HEK-293T; 1000 μM CA, current caused by 500 μM menthol, mean ± SD, n = 5.

Experiment [4] has as its target T4, hTRPV3 L670A mutant (Homo sapiens, UniProt Q8NET8, L670A).
T4 construct: expressed in transfected cells; host or cells: HEK293T
T4 sequence (Q8NET8 1-790 L670A): T1 sequence (Q8NET8 1-790) with L670A
Description: Whole-cell patch-clamp of hTRPV3 L670A mutant in HEK293T cells. The class given is cell-based. The note with it: 50 μM 2-APB.

The subject of experiment [5] is TRPV3-mediated skin inflammation induced by carvacrol. Description: Mouse model of dorsal skin dermatitis induced by skin sensitizer carvacrol. The class given is in vivo, C57BL/6J mice. The settings on record: mice, subcutaneous CA 0.1 and 1 mM (100 μL) once a day for 5 days, topical 2% carvacrol, versus carvacrol model group.
Experiment [6] addresses T5, hTRPV3 F666A mutant (Homo sapiens, UniProt Q8NET8, F666A).
T5 sequence (Q8NET8 1-790 F666A): T1 sequence (Q8NET8 1-790) with F666A
Description: cell-based.

T3 sequence (Q7Z2W7 whole entry): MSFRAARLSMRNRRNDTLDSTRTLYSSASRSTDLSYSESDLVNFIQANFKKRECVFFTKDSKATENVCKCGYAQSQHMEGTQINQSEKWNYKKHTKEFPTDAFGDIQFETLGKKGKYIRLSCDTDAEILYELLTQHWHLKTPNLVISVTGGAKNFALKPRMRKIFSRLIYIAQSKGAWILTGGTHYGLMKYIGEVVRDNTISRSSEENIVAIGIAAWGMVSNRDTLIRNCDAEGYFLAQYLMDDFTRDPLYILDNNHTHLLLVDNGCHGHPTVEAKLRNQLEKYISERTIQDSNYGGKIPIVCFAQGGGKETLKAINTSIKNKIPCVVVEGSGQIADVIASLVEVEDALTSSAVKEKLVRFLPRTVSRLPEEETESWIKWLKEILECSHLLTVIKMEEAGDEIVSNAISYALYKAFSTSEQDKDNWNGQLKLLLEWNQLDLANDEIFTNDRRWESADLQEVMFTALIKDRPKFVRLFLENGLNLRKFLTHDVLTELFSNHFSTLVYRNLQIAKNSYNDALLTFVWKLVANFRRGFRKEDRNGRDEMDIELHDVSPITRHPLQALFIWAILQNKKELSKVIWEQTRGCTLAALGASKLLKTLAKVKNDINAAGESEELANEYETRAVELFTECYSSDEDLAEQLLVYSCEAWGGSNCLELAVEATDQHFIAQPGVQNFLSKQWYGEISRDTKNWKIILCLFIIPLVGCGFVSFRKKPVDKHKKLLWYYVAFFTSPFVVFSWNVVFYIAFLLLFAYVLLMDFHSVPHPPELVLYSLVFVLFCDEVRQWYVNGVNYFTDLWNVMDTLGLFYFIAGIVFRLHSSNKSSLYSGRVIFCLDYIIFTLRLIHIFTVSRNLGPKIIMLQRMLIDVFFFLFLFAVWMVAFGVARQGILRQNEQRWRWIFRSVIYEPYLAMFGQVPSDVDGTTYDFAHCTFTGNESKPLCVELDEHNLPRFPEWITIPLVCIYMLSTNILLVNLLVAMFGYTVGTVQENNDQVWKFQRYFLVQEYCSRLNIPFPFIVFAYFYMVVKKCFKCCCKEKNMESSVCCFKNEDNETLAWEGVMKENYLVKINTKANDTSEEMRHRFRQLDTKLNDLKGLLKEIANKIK
T2 sequence (O75762 whole entry): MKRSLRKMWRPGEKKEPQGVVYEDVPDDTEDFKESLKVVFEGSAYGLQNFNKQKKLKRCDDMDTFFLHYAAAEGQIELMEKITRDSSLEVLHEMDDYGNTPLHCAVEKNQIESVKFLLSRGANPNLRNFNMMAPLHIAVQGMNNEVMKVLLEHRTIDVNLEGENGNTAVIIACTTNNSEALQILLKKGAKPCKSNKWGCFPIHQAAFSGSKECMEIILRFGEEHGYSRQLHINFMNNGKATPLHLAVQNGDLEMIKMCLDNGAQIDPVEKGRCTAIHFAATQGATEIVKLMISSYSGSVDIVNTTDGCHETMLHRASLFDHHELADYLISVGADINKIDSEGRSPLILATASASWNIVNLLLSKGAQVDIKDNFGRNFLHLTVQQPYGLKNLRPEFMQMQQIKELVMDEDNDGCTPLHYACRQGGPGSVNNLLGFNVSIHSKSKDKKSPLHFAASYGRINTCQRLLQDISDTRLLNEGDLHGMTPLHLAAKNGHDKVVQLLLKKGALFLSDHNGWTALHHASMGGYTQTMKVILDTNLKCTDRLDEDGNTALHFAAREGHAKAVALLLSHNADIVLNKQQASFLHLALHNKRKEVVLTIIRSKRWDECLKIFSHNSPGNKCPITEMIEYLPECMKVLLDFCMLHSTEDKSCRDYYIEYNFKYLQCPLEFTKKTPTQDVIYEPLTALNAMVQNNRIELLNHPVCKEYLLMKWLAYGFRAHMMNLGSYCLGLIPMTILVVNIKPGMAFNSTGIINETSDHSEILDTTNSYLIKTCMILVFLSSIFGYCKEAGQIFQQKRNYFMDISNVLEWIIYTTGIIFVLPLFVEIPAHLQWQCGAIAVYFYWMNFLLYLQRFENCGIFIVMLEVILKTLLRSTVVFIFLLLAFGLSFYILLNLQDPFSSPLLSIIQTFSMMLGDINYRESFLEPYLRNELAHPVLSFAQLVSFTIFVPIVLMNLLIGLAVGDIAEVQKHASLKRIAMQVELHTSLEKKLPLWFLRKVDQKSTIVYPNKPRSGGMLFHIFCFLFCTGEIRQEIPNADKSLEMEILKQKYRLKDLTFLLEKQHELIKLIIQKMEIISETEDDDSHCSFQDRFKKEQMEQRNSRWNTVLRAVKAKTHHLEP

Regarding `O=C(O)/C=C/c1ccc(O)c(O)c1` [CA, caffeic acid], the IC50 in experiment [1] was 102 µM and ~100 µM; in experiment [6], 105 ± 4.8 µM. Moreover, the “inhibition of human TRPA1 current” value in experiment [2] is “about 22.9 ± 12.0%”. Further, the inhibition at 1000 µM in experiment [3] is around 20.1%. The “channel current inhibition by 500 μM CA compared to WT” value in experiment [4] is listed as “no significant difference”. Also, in experiment [5] (H&E sections), the epidermal thickness entry was “reduced epidermal thickness”. Besides, in experiment [5], the dermatitis scores entry is on record as “significantly reduced the dermatitis scores”.

For the origin of these results see publication PMC11357638 (Molecules, 2024).
